Source: patent publication US6740634B1, “Sustained release compositions, process for producing the same and utilization thereof” (Takeda Chemical Industries, Ltd., priority 1998, dated 2004)
Like-named read-outs stand apart in the source and are kept apart here.

Format: physicochemical
Experimental: To this salt, 0.5 ml of water was added, followed by stirring at room temperature for 4 hours, after which the liquid was filtered through a 0.2 μm filter and quantified by HPLC. The peptide B and 3-hydroxy-2-naphthoic acid concentrations were 2.37 g/l and 0.751 g/l, respectively.

SMILES | solubility (water solubility) [mg/mL] | water solubility relative to the water solubility of the acetate of peptide B | solubility (3-hydroxy-2-naphthoic acid concentration in saturated aqueous solution (water solubility of the salt)) [mg/mL] | solubility (peptide B concentration in saturated aqueous solution (water solubility of the salt)) [mg/mL]
CCNC(=O)[C@@H]1CCCN1C(=O)[C@H](CCCNC(=N)N)NC(=O)[C@H](CC(C)C)NC(=O)[C@@H](CC(C)C)NC(=O)[C@H](Cc1ccc(O)cc1)NC(=O)[C@H](CO)NC(=O)[C@H](Cc1c[nH]c2ccccc12)NC(=O)[C@H](Cc1c[nH]cn1)NC(=O)[C@@H]1CCC(=O)N1 [acetate of peptide B, reference compound] | ≥ 1000 | – | – | –
CCNC(=O)[C@@H]1CCCN1C(=O)[C@H](CCCNC(=N)N)NC(=O)[C@H](CC(C)C)NC(=O)[C@@H](CC(C)C)NC(=O)[C@H](Cc1ccc(O)cc1)NC(=O)[C@H](CO)NC(=O)[C@H](Cc1c[nH]c2ccccc12)NC(=O)[C@H](Cc1c[nH]cn1)NC(=O)[C@@H]1CCC(=O)N1 | – | not more than 1/100 | 0.751 | 2.37
